Patent US8188221B2, “Peptide homing to brain tumors” (Burnham Institute for Medical Research, priority 2008, dated 2012)
Ends that are not written are not given here.

Assays:
Format in all cases: in vivo, mice
[1] = system: intracranial HIFko islet tumors; test: Homing of fluorescein-conjugated peptide to intracranial HIFko islet tumors (histology, anti-FITC); settings: 10 μg into tail vein, 60 min circulation
Method: Fluorescein-conjugated CGLSGLGVA peptide (10 μg) was injected into tail vein of HIFko tumor-bearing mice. After 60 min of circulation tumor-containing brain was excised and prepared for histological analysis. Peptide was visualized by using an antibody against fluorescein (rabbit anti-FITC, Zymed Laboratories). […] Presence of the tumor cells was confirmed by staining for the SV40 T-antigen specific for tumor cells from a subsequent section (green in FIG. 2B). FIGS. 2C and 2D show the same microscopic field as 2A and 2B. Nuclei were visualized by DAPI staining (blue).
(§1) Fluorescein-conjugated CGLSGLGVA peptide (10 μg) was injected into tail vein of murine HIFko or human U87MG intracranial xenograft bearing mice. After 60 min of circulation tumor-containing brain was excised and prepared for histological analysis. Peptide was visualized by using an antibody against fluorescein (rabbit anti-FITC, Zymed Laboratories). […] Nuclei were visualized by DAPI staining (blue).

[2] = system: VEGF overexpressing (VEGF+) tumor; test: Homing of fluorescein-conjugated peptide to intracranial VEGF-overexpressing tumors (histology); settings: 10 μg into tail vein, 60 min circulation, FIG. 3A
Method: Fluorescein-conjugated CGLSGLGVA peptide (10 μg) was injected into the tail vein of VEGF overexpressing (VEGF+) tumor-bearing mice. After 60 min of circulation tumor was excised and prepared for histological analysis. Peptide was visualized by using an antibody against fluorescein (rabbit anti-FITC, Zymed Laboratories). FIG. 3A. […] 3B: Same microscopic field as in 3A. Nuclei were visualized by DAPI staining (blue).

subcutaneous HIFko tumor = test: Homing of fluorescein-conjugated peptide to subcutaneous HIFko tumors (histology); settings: 10 μg into tail vein, 60 min circulation, FIG. 4A
Method: Fluorescein-conjugated CGLSGLGVA peptide (10 μg) was injected into the tail vein of subcutaneous HIFko tumor-bearing mice. After 60 min of circulation tumor was excised and prepared for histological analysis. Peptide was visualized by using an antibody against FITC (rabbit anti-FITC, Zymed Laboratories). FIG. 4A. […] FIG. 4B. Same microscopic field as in FIG. 4A. Nuclei were visualized by DAPI staining (blue).

[3] = system: human U87MG intracranial xenograft; test: Homing and localization of fluorescein-conjugated peptide in intracranial U87MG tumors (histology, PECAM-1 co-staining)
Method: as §1
Fluorescein-conjugated CGLSGLGVA peptide (10 μg) was injected into the tail vein of intracranial human U87MG tumor-bearing mice. After 60 min of circulation tumor-containing brain was excised and prepared for histological analysis. Peptide was visualized by using an antibody against fluorescein (rabbit anti-FITC, Zymed Laboratories). […] Magnification in FIG. 6A, 200×; FIG. 6B, 400×.

[4] = system: intracranial HIF-1alfa KO (HIFko) tumor; test: Homing of phage displaying CGLSGLGVA to intracranial islet tumors (phage titration of organs); settings: peptide displayed on phage, 10^9 pfu into tail vein, 15 min circulation, perfusion, FIG. 1
Method: CGLSGLGVA or a control phage (10^9 pfu=plaque forming unit) were injected into the tail vein of intracranial HIF-1alfa KO (HIFko) tumor-bearing mice. After 15 min of circulation the mice were perfused through the heart with saline to remove unbound phage followed by excision of tumor containing brain, normal brain, liver, kidney and lungs. The number of phage homed to those organs were determined by titration.

Substance	detection of peptide in tumor islets and surrounding normal brain ([1]; FIG. 2)	homing pattern of peptide in tumor ([1]; murine HIFko intracranial tumor, FIG. 5A)	detection of peptide in tumor tissue [2]	detection of peptide in tumor tissue (subcutaneous HIFko tumor)	homing to tumor ([3]; U87MG human glioblastoma xenografts, intravenous injection into the tail vein)	homing pattern of peptide in tumor ([3]; human U87MG intracranial xenograft, 10 μg into tail vein, 60 min circulation, FIG. 5B)	colocalization with endothelial cell marker PECAM-1 ([3]; intracranial U87MG tumor, 10 μg into tail vein, 60 min circulation, FIG. 6)	homing of phage to tumor containing brain versus normal brain, liver, kidney and lungs [4]
Fluorescein-conjugated CGLSGLGVA peptide: CGLSGLGVA peptide conjugated to fluorescein, detected with anti-FITC antibody (also: fluorescein conjugate)	detected only in the tumor islets and not in the surrounding normal brain tissue	detected diffusively in the whole tumor tissue	not detected in the tumor tissue	not detected in the tumor tissue	homes to the U87MG human glioblastoma xenografts	peptide distribution resembled that of blood vessels	did not colocalize with the blood vessel marker PECAM-1	–
CGLSGLGVA [novel nine amino acid long tumor-homing peptide]	–	–	–	–	–	–	–	very specifically homes to the intracranial, early stage astrocytoma model (HIFko)
